# Reference: patent US20120009152A1, “NITRIC OXIDE DONORS FOR TREATMENT OF DISEASE AND INJURY” (priority 2002, published 2012)
# Tests used:
# Format in all cases: in vivo, rat
# [1] = test system: rats subjected to middle cerebral artery occlusion (MCAo); experiment: Neurologic Severity Scale (NSS) after MCAo, combination study; details: treatment 1 day after stroke; NN 0.4 mg/kg IP, hMSCs 1×10^6 cells iv; vs control (PBS)
# Protocol: (§1) Male Wistar rats (n=32) were subjected to middle cerebral artery occlusion (MCAo) and were randomized with 8 rats in four treatment groups, with treatment initiated 1 day after stroke. Groups included: 1) phosphate buffered saline (PBS); 2) subtherapeutic DETA-NONOate (NN) at a dose of 0.4 mg/kg (IP); 3) subtherapeutic hMSCs (1×10^6 cells-iv); and 4) combination subtherapeutic NN and hMSCs. Functional outcome measurements consisted of a Neurologic Severity Scale (18 point scale) (NSS) and the Adhesive Removal Test performed prior to stroke, immediately before treatment and at 7 and 14 days after treatment. […] However, there was an overall hMSC effect on NSS at 14 days.
# [2] = test system: rats subjected to middle cerebral artery occlusion (MCAo); experiment: Volume of cerebral infarction after MCAo, combination study; details: treatment 1 day after MCAo; NN 0.4 mg/kg IP, hMSCs 1×10^6 cells iv; no significant reduction vs PBS
# Protocol: as §1
# No significant reduction of volume of ischemic damage was detected in rats with hMSC (30.7±6.2%) or NONOate ([…]) and combination hMSCs with NONOate (28.7±6.7%) treatment, compared with control rats subjected to MCAo with PBS ([…]), hMSCs were identified immunohistochemically using an antibody specific for human chromosomes (MAB1281). Within the brain tissue, cells derived from hMSCs were characterized by MAB1281 staining. No MAB1281 positive cells were found in the non-hMSCs treated rats. MSCs identified by MAB1281 survived and were distributed throughout the damaged brain of recipient rats. […] The vast majority of MAB1281 positive hMSCs were located in the ischemic boundary zone.
# [3] = test system: rats subjected to embolic middle cerebral artery occlusion; experiment: Infarct volume 28 days after embolic MCA occlusion; details: 28 days after ischemia
# Protocol: Male Wistar rats weighing 320 to 380 g were used in the present study. The middle cerebral artery (MCA) was occluded by placement of an embolus at the origin of the MCA.
# Ischemic rats (n=9) were treated with the same volume of tap water as a control group. Functional tests were performed and body weight was measured before ischemia and at 4, 7, 14, 21, and 28 days after onset of MCA occlusion. All rats were killed 28 days after MCA occlusion. […] These rats were killed 1 hour after the last treatment for measurements of brain levels of cGMP. […] Experiments were also performed to examine brain PDE5, nonischemic rats and ischemic rats were killed at 2, 4, 24, 48, and 168 hours after the onset of ischemia (n=3 for each time point). Reverse transcription (RT)-polymerase chain reaction (PCR) was performed to detect PDE5 in brain tissue.
# Measurement of infarct volume was measured on 7 hematoxylin and eosin-stained coronal sections with the use of a Global Laboratory Image analysis program (Data Translation). Briefly, the area of both hemispheres and the infarct area (mm 2) were calculated by tracing the area on the computer screen. Infarct volume (mm 3) was determined by multiplying the appropriate area by the section interval thickness. The infarct volume is presented as the percent-age of infarct volume of the contralateral hemisphere (indirect volume calculation).
# [4] = test system: BrdU-immunoreactive cells in the subventricular zone and dentate gyrus; experiment: BrdU cell proliferation in subventricular zone and dentate gyrus after embolic MCA occlusion; details: 28 days
# Protocol: Male Wistar rats weighing 320 to 380 g were used in the present study. The middle cerebral artery (MCA) was occluded by placement of an embolus at the origin of the MCA. […] Ischemic rats (n=9) were treated with the same volume of tap water as a control group. Functional tests were performed and body weight was measured before ischemia and at 4, 7, 14, 21, and 28 days after onset of MCA occlusion. All rats were killed 28 days after MCA occlusion. […] These rats were killed 1 hour after the last treatment for measurements of brain levels of cGMP. […] Reverse transcription (RT)-polymerase chain reaction (PCR) was performed to detect PDE5 in brain tissue. Bromodeoxyuridine (BrdU) was used to measure cell proliferation. Animals received daily intraperitoneal injections of BrdU (50 mg/kg; Sigma) on the day of stroke and subsequently for 14 consecutive days. Cell proliferation in the subventricular zone and dentate gyrus was measured in rats killed at 28 days (in experimental protocol 1, all 4 groups) after ischemia. […] Sections were incubated with a primary antibody to BrdU (1:100) at room temperature for 1 hour and then incubated with biotinylated secondary antibody (1:200, Vector) for 1 hour. Reaction product was detected with the use of 3′3′-diaminobenzidine-tetrahydrochloride (DAB; Sigma), For ′III-tubulin (TuJ1) immunostaining, which identifies immature neurons, 12 coronal sections were incubated with the antibody against TuJ1 (1:1000) at 4° C. overnight and were then incubated with a biotinylated horse anti-mouse immunoglobulin antibody at room temperature for 30 minutes. Double immunofluorescent staining for BrdU and TuJ1 as performed to determine whether BrdU-immunoreactive cells express neuronal phenotype on the coronal sections. Measurements of BrdU-immunoreactive cells were performed on paraffin-embedded 6-μm-thick sections. 11 BrdU-immunostained sections were digitized with the use of a 40 objective (Olympus BX40) via the MCID computer imaging analysis system (Imaging Research). BrdU-immunoreactive nuclei were counted on a computer monitor to improve visualization and in 1 focal plane to avoid oversampling. All BrdU-immunoreactive-positive nuclei were counted in both the ipsilateral and contralateral walls of the lateral ventricle of the subventricular zone and in the dentate gyrus. […] For the dentate gyrus, every 50th coronal section was selected from each rat for a total of 8 sections between anteroposterior 5.86 mm and anteroposterior 2.96 mm of the granule cell layer. BrdU-immunoreactive nuclei in the subventricular zone and in the dentate gyrus are presented as the number of the cells per square millimeter (mean SE). […] Numbers of TuJ1-immunoreactive cells were counted in the subventricular one and striatum, and data are presented as the number of TuJ1-immunoreactive cells per section (mean SE).
# [5] = Sildenafil 2 mg/kg from 2 h after MCA occlusion
# [6] = Sildenafil 2 mg/kg from 24 h after MCA occlusion
# [7] = Sildenafil 5 mg/kg from 2 h after MCA occlusion
Structure (SMILES),NSS at 14 days [1],volume of ischemic damage [2] [%],"Infarct Volume, % ([3]; Sildenafil 2 mg/kg, 2 h, percentage of lesion relative to the contralateral hemisphere) [%]","Infarct Volume, % ([3]; Sildenafil 2 mg/kg, 24 h) [%]","Infarct Volume, % ([3]; Sildenafil 5 mg/kg, 2 h) [%]","Density of newborn cells, Dentate Gyrus Contralateral [4, 5] [cells per mm^2]","Density of newborn cells, Dentate Gyrus Ipsilateral [4, 5] [cells per mm^2]","Density of newborn cells, Subventricular Zone Contralateral [4, 5] [cells per mm^2]","Density of newborn cells, Dentate Gyrus Contralateral [4, 6] [cells per mm^2]","Density of newborn cells, Dentate Gyrus Ipsilateral [4, 6] [cells per mm^2]","Density of newborn cells, Subventricular Zone Contralateral [4, 6] [cells per mm^2]","Density of newborn cells, Subventricular Zone Ipsilateral [4, 6] [cells per mm^2]","Density of newborn cells, Subventricular Zone Ipsilateral ([4]; Sildenafil 2 mg/kg oral daily 7 days from 2 h after MCA occlusion) [cells per mm^2]","Density of newborn cells, Dentate Gyrus Contralateral [4, 7] [cells per mm^2]","Density of newborn cells, Dentate Gyrus Ipsilateral [4, 7] [cells per mm^2]","Density of newborn cells, Subventricular Zone Contralateral [4, 7] [cells per mm^2]","Density of newborn cells, Subventricular Zone Ipsilateral [4, 7] [cells per mm^2]"
"NCCN(CCN)/[N+]([O-])=N/O [DETANONOate, (Z)-1-[N-(2-aminoethyl)-N-(2-ammonioethyl)aminio]diazen-1-ium-1,2-diolate]",No significant difference,32.2±62,–,–,–,–,–,–,–,–,–,–,–,–,–,–,–
CCCc1nn(C)c2c(=O)[nH]c(-c3cc(S(=O)(=O)N4CCN(C)CC4)ccc3OCC)nc12 [Sildenafil],–,–,35.2 ± 3.3,35.5 ± 0.9,37.7 ± 4.3,55 ± 2.10,55 ± 3.99,296 ± 19.74,56 ± 4.76,57 ± 4.21,295 ± 24.54,374 ± 16.07,383 ± 23.44,58 ± 5.38,59 ± 5.26,312 ± 23.79,437 ± 32.97
